A short description of data set [1]: Physical stability study of spray-dried amorphous APIs stored at 75% RH, 25 °C (solid state by Raman, MDSC, PXRD). Type of data set: physicochemical. As to conditions: for Estimated Amorphous Content at Day 168 / Crystallization Initiation Propensity / Time to Complete Crystallization / Time to Start Crystallization / Crystal Growth: 75% RH at 25 °C; for Estimated Amorphous Content at Day 168: semi-quantitative Raman analysis; for Stability for 168 Days at 75% RH / Crystallization Initiation Propensity / Time to Complete Crystallization / Time to Start Crystallization / Crystal Growth: spray-dried amorphous API; for Stability for 168 Days at 75% RH: 25 °C; for Time to Complete Crystallization / Time to Start Crystallization: up to 168 days. As for the experimental part: The amorphous solids were prepared by spray-drying. In short, solutions containing the APIs of interest were prepared by dissolving the crystalline powder in either ethanol, acetone, or a mixture of 90:10 (% w/w) ethanol/acetone prior to spray-drying. Any unwanted debris and particulate contaminants were removed by filtration (0.45 µm pore size). Thereafter, the solutions were spray-dried using a Büchi B-290-Mini Spray Dryer with an inert loop (Büchi Laboratoriums, Flawil, Switzerland) according to the processing parameters previously described by Edueng et al.. After spray-drying, the collected solids were divided and kept in two different wide-mouth aluminum containers. These open containers were placed in a vacuumed desiccator overnight to remove any residual solvent. The vacuum-dried solids were subsequently characterized with different solid-state analytical methods, studied for their supersaturation behavior, and stored in the stability chamber for 168 days (6 months). Following the overnight vacuum-drying, the spray-dried materials were placed in a stability chamber with a 75% relative humidity level and constant temperature of 25 °C. The samples were stored in open wide-mouth aluminum containers. Samples were withdrawn from the stability chamber at 1, 2, 7, 14, 28, 84, and 168 day(s) for the solid-state analyses. These analyses monitored the physical stability of the amorphous API, and the supersaturation study investigated the impact of solid-state changes on the supersaturation potential and crystallization kinetics. The preparation of these materials and the physical stability protocol are described in detail in Edueng et al..
A Twin-Twin (Bruker, Coventry, UK) measuring in Bragg–Brentano geometry and equipped with a sample rotator was used to collect the X-ray diffractograms of the unprocessed crystalline and freshly spray-dried APIs. The solid samples were gently ground with a mortar and pestle when the powder was too coarse. Thereafter, they were placed on silicon sample holders which rotated at 40 rpm during the measurement. The X-ray source was a rotating copper anode with an accelerating voltage of 40 kV and current of 40 mA. The emitted Cu Kα radiation (λ = 1.54 Å) was used in the measurements. A diffraction pattern in the 2Ө range between 5° and 40° was collected at a scanning step of 0.01° and 0.3 s exposure time at each step. Primary and secondary divergence slits of 0.40 and 2.48 mm, respectively, were used. Since this technique provides a more direct interpretation regarding the amorphous and/or crystalline content of samples, it was used to ensure that the spray-dried APIs were fully amorphous prior to the initiation of other analyses. Based on this information, the reference Raman spectra for the fully amorphous and fully crystalline samples of each compound could be established.
Modulated differential scanning calorimetry (MDSC) was performed to identify and monitor the solid-state form changes of the solids (amorphous, crystalline, or a mixture of both) and to determine the temperatures of glass transition (Tg), crystallization (Tc), and melting (Tm). Approximately 1–5 mg of sample was weighed and transferred into standard aluminum pans. The lids were pin-holed to allow evaporation of any solvent or moisture. Depending on the Tg, the samples were equilibrated at either −70 °C or 0 °C to allow for at least a 20 °C baseline prior to the Tg measurement, followed by heating up to 20–30 °C above the Tm at 3 °C/min and a temperature modulation of ±1 °C every 60 s. Analyses and integrations of the thermograms were performed using TA Instruments Universal Analysis 2000 for Windows (Version 4.5A, Sollentuna, Sweden) software.
In addition to MDSC, the samples were examined by Raman spectroscopy using a Rxn-2 Hybrid Raman Spectrometer (Kaiser Optical System Inc., Ann Arbor, MI, USA). […]

The nature of data set [2]: In vitro supersaturation under non-sink conditions (µDISS Profiler, tenfold supersaturation ratio, spray-dried solids). Type of data set: physicochemical. As to conditions: for RAUC (AUC ratio spray-dried/crystalline) / RCmax,app (Cmax,app ratio spray-dried/crystalline): tenfold supersaturation ratio, phosphate buffer pH 6.5, 37 °C, 60 min; for Ratio AUC (RAUC) / Ratio Cmax (RCmax,app): pH 6.5, 37 °C. The procedure:
The protocol is described in Edueng et al.. In short, the experiment was initiated by constructing a standard curve (R^2 ≥ 0.97) covering the possible concentrations attained from the supersaturation. […] For this purpose, a small-scale dissolution apparatus, the µDISS Profiler (pION Inc., Billerica, MA, USA), was used. The temperature and stirring rate were maintained at 37 °C and 100 rpm, respectively, and the supersaturation behavior was monitored for 60 min. The experiments were conducted in triplicate for each sample type.
The effects of physical aging and/or crystallization upon storage on the performance at tenfold supersaturation were assessed on the basis of the following parameters: (i) the apparent maximum concentration achieved (Cmax,app); (ii) the area under the curve (AUC); and (iii) the crystallization rate constant (k) (see Figure 9). Cmax,app refers to the maximum supersaturation concentration attained by dissolving amorphous solid in the medium before a decline in concentration was observed. […] The crystallization rate constant (k) defines the rate at which a decrease in concentration was observed. It gives an indication of the crystallization rate upon dissolution and is expressed as the reciprocal of the x-axis time units.
These three parameters were determined using GraphPad Prism version 8.1.0 for Windows (GraphPad Software, San Diego, CA, USA). Cmax,app was obtained by determining descriptive statistics of the tabulated dissolution data. It corresponds to the maximum value or highest point in the dissolution data (referred to as “maximum” in the Graphpad software). The AUC was computed based on the trapezoidal rule. The Cmax,app and AUC of the fresh and the aged/crystallized spray-dried samples were divided by the Cmax,app and AUC of the crystalline samples to obtain the ratios of both parameters (see Equations (1) and (2)). The ratios were then referred to as RCmax,app and RAUC, respectively. The crystallization was approximated following first-order kinetics, leading to Equation (3). The k value was determined by performing a nonlinear curve fitting of Equation (3) from the time point of Cmax,app of the supersaturation profiles of the samples using the same software. (1) RCmax,app=Cmax,SD/Cmax,cryst (2) RAUC=AUCSD/AUCcryst (3) C(t)=(C0−C∞)·e^−k·t+C∞
In Equation (3), C0 is the fitted concentration at t = 0, C∞ is the estimated concentration at infinite time, and k is the rate constant. In our study, the concentration is expressed in µg/mL while k is expressed in min^−1.

Setting [3] is: aged and/or crystallized spray-dried (SD Tn, stored at 75% RH).
The mark [4] stands for this setting: spray-dried samples (fresh and aged), as summarised in text from Figures 2 and 3.
[5] abbreviates: 2-day sample (SD T2D; 23% crystalline) stored at 75% RH.
[6] abbreviates: 2-day-old sample containing 23% crystallinity.
Setting [7] is: 7-day sample (SD T7D; completely crystalline) stored at 75% RH.

A value given as a limit tells only on which side of the number the result lay.

With `CC1Cc2ccccc2N1NC(=O)c1ccc(Cl)c(S(N)(=O)=O)c1` (centres unmarked) [Indapamide, indapamide], in data set [1], the “Estimated Amorphous Content at Day 168” value is on record as 100%, the “Stability for 168 Days at 75% RH” value was “High”, the “Crystallization Initiation Propensity” value is reported as “Low” and the “Time to Complete Crystallization” value is greater than 168 days. Further, in data set [1], the “Time to Start Crystallization” value is greater than 168 days. In data set [1] (listed as indapamide), the “Time to Start Crystallization” value is no less than 168 days. In data set [2] (setting [3]), the “RAUC (AUC ratio spray-dried/crystalline)” value is given as 2.1 and the “RCmax,app (Cmax,app ratio spray-dried/crystalline)” value came out at 2.5. In data set [2] (freshly spray-dried (SD T0)), the “RAUC (AUC ratio spray-dried/crystalline)” value came to 1.9 and the “RCmax,app (Cmax,app ratio spray-dried/crystalline)” value came to 2.3.

With `Cc1ccccc1N1C(=O)c2cc(S(N)(=O)=O)c(Cl)cc2NC1C` (centres unmarked) [Metolazone, metolazone], in data set [1], the “Estimated Amorphous Content at Day 168” value is recorded as 100%, the “Stability for 168 Days at 75% RH” value is listed as “High”, the “Crystallization Initiation Propensity” value is reported as “Low” and the “Time to Complete Crystallization” value was greater than 168 days. Also, the “Time to Start Crystallization” value in data set [1] was greater than 168 days. Further, the “Time to Start Crystallization” value in data set [1] (listed as metolazone) was no less than 168 days. In data set [2] (setting [3]), the “RAUC (AUC ratio spray-dried/crystalline)” value stood at 1.8 and the “RCmax,app (Cmax,app ratio spray-dried/crystalline)” value worked out at 2.8. In data set [2] (freshly spray-dried (SD T0)), the “RAUC (AUC ratio spray-dried/crystalline)” value was 1.5 and the “RCmax,app (Cmax,app ratio spray-dried/crystalline)” value worked out at 2.8.

With `NS(=O)(=O)c1cc2c(cc1Cl)NCNS2(=O)=O` [Hydrochlorothiazide, hydrochlorothiazide], in data set [1], the “Estimated Amorphous Content at Day 168” value is given as 0%, the “Stability for 168 Days at 75% RH” value is “Low”, the “Crystal Growth” value was “Rapid” and the “Crystallization Initiation Propensity” value is “High”. In data set [1], the “Time to Complete Crystallization” value is 1 days and the “Time to Start Crystallization” value was 1 days.

Consider `Nc1ccc(S(=O)(=O)Nc2nccs2)cc1` [Sulfathiazole, sulfathiazole], for which, in data set [1], the “Estimated Amorphous Content at Day 168” value is recorded as 0%, the “Stability for 168 Days at 75% RH” value is recorded as “Low”, the “Crystal Growth” value is given as “Rapid” and the “Crystallization Initiation Propensity” value was “High”. In addition, in data set [1], the “Time to Complete Crystallization” value was found to be 1 days and the “Time to Start Crystallization” value is 1 days. Besides, in data set [2] (setting [3]), the “RAUC (AUC ratio spray-dried/crystalline)” value turned out to be 1.5 and the “RCmax,app (Cmax,app ratio spray-dried/crystalline)” value is given as 1.5. In data set [2] (freshly spray-dried (SD T0)), the “RAUC (AUC ratio spray-dried/crystalline)” value was determined as 1.5 and the “RCmax,app (Cmax,app ratio spray-dried/crystalline)” value was found to be 1.6.

Consider `COc1ccc(Cl)cc1C(=O)NCCc1ccc(S(=O)(=O)NC(=O)NC2CCCCC2)cc1` [Glibenclamide, glibenclamide], for which, in data set [1], the “Estimated Amorphous Content at Day 168” value is 94%, the “Stability for 168 Days at 75% RH” value is on record as “Moderate”, the “Crystal Growth” value is “Slow” and the “Crystallization Initiation Propensity” value was “High”. Also, in data set [1], the “Time to Complete Crystallization” value is greater than 168 days and the “Time to Start Crystallization” value stood at 1 days. Besides, in data set [1] (listed as glibenclamide), the “Estimated Amorphous Content at Day 168” value was “approximately 94%”. Besides, in data set [1] (after 168 days at 75% RH), the Estimated crystalline content is on record as 6%. Moreover, in data set [2] (setting [3]), the “RAUC (AUC ratio spray-dried/crystalline)” value is 4.4 and the “RCmax,app (Cmax,app ratio spray-dried/crystalline)” value is 7.6. Moreover, in data set [2] (freshly spray-dried (SD T0)), the “RAUC (AUC ratio spray-dried/crystalline)” value was found to be 4.1 and the “RCmax,app (Cmax,app ratio spray-dried/crystalline)” value is on record as 7.2. Moreover, in data set [2] (setting [4]), the “RAUC, times higher than the crystalline counterparts” value was roughly 4 times and the “RCmax,app, times higher than the crystalline counterparts” value is listed as “approximately 7 times”.

In the case of `C[C@]12CCC(=O)C=C1CC[C@@H]1[C@@H]2[C@@H](O)C[C@@]2(C)[C@H]1CC[C@]2(O)C(=O)CO` [Hydrocortisone, hydrocortisone], in data set [1], the “Estimated Amorphous Content at Day 168” value was roughly 89%, the “Stability for 168 Days at 75% RH” value was “Moderate”, the “Crystal Growth” value is recorded as “Slow” and the “Crystallization Initiation Propensity” value is reported as “High”. For the same compound, the “Time to Start Crystallization” value in data set [1] was determined as 1 days. For the same compound, the Estimated crystalline content in data set [1] (after 168 days at 75% RH) is recorded as 11%.

On to `CC(=O)N1CCN(c2ccc(OCC3COC(Cn4ccnc4)(c4ccc(Cl)cc4Cl)O3)cc2)CC1` (centres unmarked) [Ketoconazole, ketoconazole], for which the Estimated crystalline content in data set [1] (2-day sample (T2D) at 75% RH) is 23%. Moreover, in data set [1], the “Estimated Amorphous Content at Day 168” value is reported as 0%, the “Stability for 168 Days at 75% RH” value is recorded as “Low”, the “Crystal Growth” value is given as “Rapid” and the “Crystallization Initiation Propensity” value is recorded as “High”. Besides, in data set [1], the “Time to Complete Crystallization” value came to 7 days and the “Time to Start Crystallization” value was 1 days. In addition, in data set [2] (setting [5]), the “Ratio AUC (RAUC)” value was 0.7 and the “Ratio Cmax (RCmax,app)” value is recorded as 0.9. Besides, in data set [2] (setting [6]), the “Decrease of AUC ratio versus fresh sample” value came out at 50% and the “Decrease of Cmax ratio (Cmax,app) versus fresh sample” value is 50%. Also, in data set [2] (setting [7]), the “Ratio AUC (RAUC)” value was determined as 0.8 and the “Ratio Cmax (RCmax,app)” value was determined as 1.1. Also, in data set [2] (setting [3]), the “RAUC (AUC ratio spray-dried/crystalline)” value was 0.8 and the “RCmax,app (Cmax,app ratio spray-dried/crystalline)” value worked out at 1.1. Also, the “Decrease of RCmax,app versus fresh sample” value in data set [2] (completely crystallized spray-dried sample) is on record as 50%. Besides, in data set [2] (freshly spray-dried (SD T0)), the “RAUC (AUC ratio spray-dried/crystalline)” value is reported as 1.6 and the “RCmax,app (Cmax,app ratio spray-dried/crystalline)” value turned out to be 2.0.

The values are drawn from publication PMC6696415, “Supersaturation Potential of Amorphous Active Pharmaceutical Ingredients after Long-Term Storage” (Molecules, 2019).
